Data taken from patent publication US6900200B2, “Tricyclic hydroxy carboxamides and derivatives thereof tocolytic oxytocin receptor antagonists” (Wyeth, priority 2001, dated 2005).

COc1cc(C(=O)N2Cc3ccc(C(=O)N(C)C[C@H](O)[C@@H](O)[C@@H](O)[C@H](O)CO)n3Cc3ccccc32)ccc1-c1ccccc1C(F)(F)F [Example 23, 10-{[2-Methoxy-2′-trifluoromethyl-[1,1′-biphenyl]-4-yl]carbonyl}-N-methyl-N-[(2R,3S,4R,5S)-2,3,4,5,6-pentahydroxyhexyl]-10,11-dihydro-5H-pyrrolo[2,1-c][1,4]benzodiazepine-3-carboxamide]
melting point: 132 to 140 °C (dec.)
